Laboratory results reported in the Kinase Knowledgebase extract (Sharma et al. 2016).

Target: PIK3CD (Human) (UniProt O00329)
Assay: Enzyme Assay

PIK3CD (Human), sequence (O00329 whole entry, looked up): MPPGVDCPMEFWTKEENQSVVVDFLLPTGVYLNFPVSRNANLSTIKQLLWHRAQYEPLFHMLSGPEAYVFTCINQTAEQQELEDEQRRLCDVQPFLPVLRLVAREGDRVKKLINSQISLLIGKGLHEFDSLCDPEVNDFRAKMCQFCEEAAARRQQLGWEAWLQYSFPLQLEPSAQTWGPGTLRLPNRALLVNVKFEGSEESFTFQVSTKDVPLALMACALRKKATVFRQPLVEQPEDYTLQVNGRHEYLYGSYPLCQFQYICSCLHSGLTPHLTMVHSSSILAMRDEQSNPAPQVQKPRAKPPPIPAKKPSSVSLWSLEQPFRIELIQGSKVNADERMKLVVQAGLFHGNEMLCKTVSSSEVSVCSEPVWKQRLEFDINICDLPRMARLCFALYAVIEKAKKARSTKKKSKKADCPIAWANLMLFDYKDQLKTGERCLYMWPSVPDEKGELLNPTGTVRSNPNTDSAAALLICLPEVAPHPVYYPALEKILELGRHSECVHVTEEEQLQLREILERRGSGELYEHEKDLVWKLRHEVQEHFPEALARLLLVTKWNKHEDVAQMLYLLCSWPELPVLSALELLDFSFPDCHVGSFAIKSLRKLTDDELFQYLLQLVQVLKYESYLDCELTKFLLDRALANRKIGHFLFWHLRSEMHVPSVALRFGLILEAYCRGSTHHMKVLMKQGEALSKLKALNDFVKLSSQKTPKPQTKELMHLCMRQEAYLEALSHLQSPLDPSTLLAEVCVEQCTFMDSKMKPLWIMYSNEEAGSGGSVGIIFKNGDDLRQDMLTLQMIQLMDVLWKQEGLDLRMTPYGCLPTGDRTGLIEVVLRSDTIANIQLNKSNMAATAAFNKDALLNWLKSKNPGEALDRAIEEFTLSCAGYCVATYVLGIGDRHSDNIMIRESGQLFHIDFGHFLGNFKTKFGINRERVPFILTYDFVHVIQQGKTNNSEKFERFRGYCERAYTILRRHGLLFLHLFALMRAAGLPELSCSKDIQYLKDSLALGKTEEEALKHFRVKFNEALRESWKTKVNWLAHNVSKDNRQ

SMILES | Ki [nM]
CNC(=O)c1cccc(-n2c([C@@H](C)Nc3ncnc(N)c3C#N)nc3ccc(F)cc32)c1.CNC(=O)c1cccc(-n2c([C@H](C)Nc3ncnc(N)c3C#N)nc3ccc(F)cc32)c1 | 30.6
C[C@H](Nc1ncnc(N)c1C#N)c1nc2ccc(F)cc2n1-c1ccc(-c2cccnc2)nc1 | 248
C[C@@H](Nc1ncnc(N)c1C#N)c1nc2ncccc2n1-c1ccccn1.C[C@H](Nc1ncnc(N)c1C#N)c1nc2ncccc2n1-c1ccccn1 | 2900
C[C@@H](Nc1ncnc(N)c1C#N)c1nc2ccc(F)cc2n1-c1cccc(C#N)c1.C[C@H](Nc1ncnc(N)c1C#N)c1nc2ccc(F)cc2n1-c1cccc(C#N)c1 | 28.8
C[C@@H](Nc1ncnc(N)c1C#N)c1nc2ccc(F)cc2n1-c1cncc(Br)c1.C[C@H](Nc1ncnc(N)c1C#N)c1nc2ccc(F)cc2n1-c1cncc(Br)c1 | 46.1
C[C@@H](Nc1ncnc(N)c1C#N)c1nc2c(F)cccc2n1-c1cncc(F)c1.C[C@H](Nc1ncnc(N)c1C#N)c1nc2c(F)cccc2n1-c1cncc(F)c1 | 86.1
C[C@@H](Nc1ncnc(N)c1C#N)c1nc2ccc(F)cc2n1-c1ccc(-c2cccnc2)nc1 | 1190
C[C@@H](Nc1ncnc(N)c1C#N)c1nc2ccc(F)cc2n1-c1cccc(F)n1.C[C@H](Nc1ncnc(N)c1C#N)c1nc2ccc(F)cc2n1-c1cccc(F)n1 | 24.7
C[C@@H](Nc1ncnc(N)c1C#N)c1nc2ccc(F)cc2n1-c1cncc(NS(C)(=O)=O)c1.C[C@H](Nc1ncnc(N)c1C#N)c1nc2ccc(F)cc2n1-c1cncc(NS(C)(=O)=O)c1 | 14.4
CNC(=O)c1cccc2nc([C@@H](C)Nc3ncnc(N)c3C#N)n(-c3cncc(F)c3)c12.CNC(=O)c1cccc2nc([C@H](C)Nc3ncnc(N)c3C#N)n(-c3cncc(F)c3)c12 | 90.1
C[C@@H](Nc1ncnc(N)c1C#N)c1nc2cccc(C#N)c2n1-c1cncc(F)c1.C[C@H](Nc1ncnc(N)c1C#N)c1nc2cccc(C#N)c2n1-c1cncc(F)c1 | 177
C[C@@H](Nc1ncnc(N)c1C#N)c1nc2cccc(S(C)(=O)=O)c2n1C1CC1.C[C@H](Nc1ncnc(N)c1C#N)c1nc2cccc(S(C)(=O)=O)c2n1C1CC1 | 3.76
C[C@@H](Nc1ncnc(N)c1C#N)c1nc2cccc(Br)c2n1-c1cncc(F)c1.C[C@H](Nc1ncnc(N)c1C#N)c1nc2cccc(Br)c2n1-c1cncc(F)c1 | 69.7
C[C@@H](Nc1ncnc(N)c1C#N)c1nc2cc(F)ccc2n1-c1cncc(F)c1.C[C@H](Nc1ncnc(N)c1C#N)c1nc2cc(F)ccc2n1-c1cncc(F)c1 | 148
C[C@@H](Nc1ncnc(N)c1C#N)c1nc2c(F)cc(F)cc2n1-c1cccnc1.C[C@H](Nc1ncnc(N)c1C#N)c1nc2c(F)cc(F)cc2n1-c1cccnc1 | 22.2
